# According to US8785614B2, “Aberrantly methylated genes in pancreatic cancer” (The Johns Hopkins University, priority 2003, dated 2014):
# Where two headings read alike, the source gives them in different places.
# Tests used:
# [1] = system: Panc1 pancreatic cancer cell line
# Procedure: (§1) Mock-treated cells were cultured with the equivalent volume of PBS alone.
# (§2) Total RNA was isolated from cultured cells using TRIZOL reagent (invitrogen, Carlsbad, Calif.) and purified using RNeasy Mini Kit (Qiagen, Valencia, Calif.). First- and second-stranded cDNA was synthesized from 10 μg of total RNA using 17-dT) primer (Genset Corp., La Jolla, Calif.) and Superscript Choice system (Invitrogen). Labeled cRNA was synthesized from the purified cDNA by in vitro transcription reaction using the BioArray High Yield RNA Transcript Labeling Kit (Enzo Diagnostics, Inc., Farmingdale, N.Y.) at 37° C. for 6 h. The cRNA was fragmented at 94° C. for 35 min. in a fragmentation buffer [40 mM Tris-acetate @ pH 8.1, 100 mM potassium acestate, and 30 mM magnesium acetate]. The fragmented cRNA was then hybridized to the Human Genome U133A chips (Affymetrix, Santa Clara, Calif.) with 18462 unique gene/EST transcripts at 45° C. for 16 h. The washing and staining procedure was performed in the Affymetrix Fluidics Station according to the manufacturer's instructions. The probes were then scanned using a laser scanner, and signal intensity for each transcript (background-subtracted and adjusted for noise) was calculated using Microarray Suite Software 5.0 (Affymetrix).
# (§3) Fold change analysis of signal intensities obtained from oligonucleotide microarrays between the two treatment groups was performed using Data Mining software (Afrymetrix).
# (§4) The global changes in gene expression proxies induced by 5Aza-dC in four pancreatic cancer cell lines (AsPCl, Hs766T, MiaPaCa2, and Panel) were determined using the Afrymetrix U133 oligonucleotide microarrays with 18462 probes sets (transcripts) covering over 13000 full-length sequences of known genes.
# [2] = system: Hs766T pancreatic cancer cell line
# Procedure: as §1, §2, §3, §4
compound,measurement,setting,value
"Nc1ncn([C@H]2C[C@H](O)[C@@H](CO)O2)c(=O)n1 [5Aza-dC, 5 aza 2′ deoxycytidine]",Fold-change after 5Aza-dC treatment,"[1]; ANGPT2, Panc1",0.91 fold
same,Fold-change after 5Aza-dC treatment,"[1]; BARD1, Panc1",−1.01 fold
same,Fold-change after 5Aza-dC treatment,"[1]; BNIP3, Panc1",−1.07 fold
same,Fold-change after 5Aza-dC treatment,"[1]; BST2, Panc1",−1.04 fold
same,Fold-change after 5Aza-dC treatment,"[1]; CACNA1G, Panc1",5.26 fold
same,Fold-change after 5Aza-dC treatment,"[1]; CCNE2, Panc1",1.52 fold
same,Fold-change after 5Aza-dC treatment,"[1]; CDH3, Panc1",2.31 fold
same,Fold-change after 5Aza-dC treatment,"[1]; CDKN1A (p21), Panc1",1.93 fold
same,Fold-change after 5Aza-dC treatment,"[1]; CDKN1C, Panc1",3.77 fold
same,Fold-change after 5Aza-dC treatment,"[1]; CLDN5, Panc1",1.88 fold
same,Fold-change after 5Aza-dC treatment,"[1]; CSF1, Panc1",−1.91 fold
same,Fold-change after 5Aza-dC treatment,"[1]; FOXE1, Panc1",1.7 fold
same,Fold-change after 5Aza-dC treatment,"[1]; GAGE1, Panc1",0.46 fold
same,Fold-change after 5Aza-dC treatment,"[1]; GAGE3, Panc1",9.78 fold
same,Fold-change after 5Aza-dC treatment,"[1]; GAGE4, Panc1",35.44 fold
same,Fold-change after 5Aza-dC treatment,"[1]; GAGE6, Panc1",35.5 fold
same,Fold-change after 5Aza-dC treatment,"[1]; GAGE7, Panc1",36.1 fold
same,Fold-change after 5Aza-dC treatment,"[1]; HOXA1, Panc1",1.26 fold
same,Fold-change after 5Aza-dC treatment,"[1]; IGF2, Panc1",9.41 fold
same,Fold-change after 5Aza-dC treatment,"[1]; IL1R1, Panc1",1.37 fold
same,Fold-change after 5Aza-dC treatment,"[1]; ISG20, Panc1",−0.84 fold
same,Fold-change after 5Aza-dC treatment,"[1]; JPH3, Panc1",−4.18 fold
same,Fold-change after 5Aza-dC treatment,"[1]; KLK10, Panc1",−1.05 fold
same,Fold-change after 5Aza-dC treatment,"[1]; LDOC1, Panc1",9.19 fold
same,Fold-change after 5Aza-dC treatment,"[1]; LHX1, Panc1",1.79 fold
same,Fold-change after 5Aza-dC treatment,"[1]; MAGE1, Panc1",7.32 fold
same,Fold-change after 5Aza-dC treatment,"[1]; MATN1, Panc1",3.61 fold
same,Fold-change after 5Aza-dC treatment,"[1]; NEFH, Panc1",4.59 fold
same,Fold-change after 5Aza-dC treatment,"[1]; NPTX2, Panc1",18.94 fold
same,Fold-change after 5Aza-dC treatment,"[1]; PAX6, Panc1",4.45 fold
same,Fold-change after 5Aza-dC treatment,"[1]; PDYN, Panc1",4.84 fold
same,Fold-change after 5Aza-dC treatment,"[1]; PLAT, Panc1",2.13 fold
same,Fold-change after 5Aza-dC treatment,"[1]; PLEK2, Panc1",1.08 fold
same,"transcripts with >5-fold increase, share of the 18462 transcripts analyzed",[1]; Panc1,0.6%
same,transcripts with substantial increase (>5-fold) in signal intensities,"[1]; Panc1, vs mock-treated",116 transcripts
same,Fold-change after 5Aza-dC treatment,"[1]; SARP2, Panc1",−1.47 fold
same,Fold-change after 5Aza-dC treatment,"[1]; SMARCA1, Panc1",1.01 fold
same,Fold-change after 5Aza-dC treatment,"[1]; ST14, Panc1",5.1 fold
same,Fold-change after 5Aza-dC treatment,"[1]; TIMP3, Panc1",1.1 fold
same,Fold-change after 5Aza-dC treatment,"[1]; TJP2, Panc1",1.49 fold
same,Fold-change after 5Aza-dC treatment,"[1]; TNF, Panc1",1.18 fold
same,Fold-change after 5Aza-dC treatment,"[1]; UCHL1, Panc1",2.37 fold
same,Fold-change after 5Aza-dC treatment,"[1]; WNT7A, Panc1",3.57 fold
same,Fold-change after 5Aza-dC treatment,"[1]; XAGE-1, Panc1",24.78 fold
same,Fold-change after 5Aza-dC treatment,"[1]; granulocytemacrophage colony-stimulating factor (M11734), Panc1",2.17 fold
same,Fold-change after 5Aza-dC treatment,"[1]; interferon, alpha-inducible protein (NM_022873), Panc1",1.2 fold
same,Fold-change after 5Aza-dC treatment,"[1]; p53-induced protein (PIGII), Panc1",1.04 fold
same,Fold-change after 5Aza-dC treatment,"[1]; reprimo, Panc1",1.03 fold
same,Fold-change after 5Aza-dC treatment,"[1]; stratifin (14-3-3 sigma), Panc1",1.21 fold
same,Fold-change after 5Aza-dC treatment,"[1]; stromal antigen 3 (STAG5), Panc1",6.84 fold
same,Fold-change after 5Aza-dC treatment,"[1]; testin, Panc1",1.57 fold
same,Fold-change after 5Aza-dC treatment,"[2]; ANGPT2, Hs766T",−0.44 fold
same,Fold-change after 5Aza-dC treatment,"[2]; BARD1, Hs766T",5.21 fold
same,Fold-change after 5Aza-dC treatment,"[2]; BNIP3, Hs766T",−1.75 fold
same,Fold-change after 5Aza-dC treatment,"[2]; BST2, Hs766T",1.36 fold
same,Fold-change after 5Aza-dC treatment,"[2]; CACNA1G, Hs766T",0.5 fold
same,Fold-change after 5Aza-dC treatment,"[2]; CCNE2, Hs766T",5.28 fold
same,Fold-change after 5Aza-dC treatment,"[2]; CDH3, Hs766T",0.89 fold
same,Fold-change after 5Aza-dC treatment,"[2]; CDKN1A (p21), Hs766T",1.04 fold
same,Fold-change after 5Aza-dC treatment,"[2]; CDKN1C, Hs766T",5.42 fold
same,Fold-change after 5Aza-dC treatment,"[2]; CLDN5, Hs766T",1.21 fold
same,Fold-change after 5Aza-dC treatment,"[2]; CSF1, Hs766T",5.75 fold
same,Fold-change after 5Aza-dC treatment,"[2]; DR3, Hs766T",−1.46 fold
same,Fold-change after 5Aza-dC treatment,"[2]; FOXE1, Hs766T",5.63 fold
same,Fold-change after 5Aza-dC treatment,"[2]; GAGE1, Hs766T",0.48 fold
same,Fold-change after 5Aza-dC treatment,"[2]; GAGE3, Hs766T",−2.57 fold
same,Fold-change after 5Aza-dC treatment,"[2]; GAGE4, Hs766T",−1.1 fold
same,Fold-change after 5Aza-dC treatment,"[2]; GAGE6, Hs766T",1.09 fold
same,Fold-change after 5Aza-dC treatment,"[2]; GAGE7, Hs766T",−1.12 fold
same,Fold-change after 5Aza-dC treatment,"[2]; HOXA1, Hs766T",−1.61 fold
same,"transcripts with >5-fold increase, share of the 18462 transcripts analyzed",[2]; Hs766T,0.9%
same,transcripts with substantial increase (>5-fold) in signal intensities,"[2]; Hs766T, vs mock-treated",167 transcripts
same,Fold-change after 5Aza-dC treatment,"[2]; IGF2, Hs766T",−0.41 fold
same,Fold-change after 5Aza-dC treatment,"[2]; IL1R1, Hs766T",−2.59 fold
same,Fold-change after 5Aza-dC treatment,"[2]; ISG20, Hs766T",1.02 fold
same,Fold-change after 5Aza-dC treatment,"[2]; JPH3, Hs766T",5.27 fold
same,Fold-change after 5Aza-dC treatment,"[2]; KLK10, Hs766T",1.16 fold
same,Fold-change after 5Aza-dC treatment,"[2]; LDOC1, Hs766T",−1.86 fold
same,Fold-change after 5Aza-dC treatment,"[2]; LHX1, Hs766T",1.92 fold
same,Fold-change after 5Aza-dC treatment,"[2]; MAGE1, Hs766T",4.45 fold
same,Fold-change after 5Aza-dC treatment,"[2]; MATN1, Hs766T",6.83 fold
same,Fold-change after 5Aza-dC treatment,"[2]; NEFH, Hs766T",−1.24 fold
same,Fold-change after 5Aza-dC treatment,"[2]; NPTX2, Hs766T",−2.6 fold
same,Fold-change after 5Aza-dC treatment,"[2]; PAX6, Hs766T",1.36 fold
same,Fold-change after 5Aza-dC treatment,"[2]; PDYN, Hs766T",6.38 fold
same,Fold-change after 5Aza-dC treatment,"[2]; PLAT, Hs766T",−1.73 fold
same,Fold-change after 5Aza-dC treatment,"[2]; PLEK2, Hs766T",1.12 fold
same,Fold-change after 5Aza-dC treatment,"[2]; SARP2, Hs766T",1.35 fold
same,Fold-change after 5Aza-dC treatment,"[2]; SMARCA1, Hs766T",−0.79 fold
same,Fold-change after 5Aza-dC treatment,"[2]; ST14, Hs766T",−4.72 fold
same,Fold-change after 5Aza-dC treatment,"[2]; TIMP3, Hs766T",−3.67 fold
same,Fold-change after 5Aza-dC treatment,"[2]; TJP2, Hs766T",−1.56 fold
same,Fold-change after 5Aza-dC treatment,"[2]; TNF, Hs766T",−4.9 fold
same,Fold-change after 5Aza-dC treatment,"[2]; UCHL1, Hs766T",1.45 fold
same,Fold-change after 5Aza-dC treatment,"[2]; WNT7A, Hs766T",9.03 fold
same,Fold-change after 5Aza-dC treatment,"[2]; XAGE-1, Hs766T",−0.5 fold
same,Fold-change after 5Aza-dC treatment,"[2]; granulocytemacrophage colony-stimulating factor (M11734), Hs766T",5.53 fold
same,Fold-change after 5Aza-dC treatment,"[2]; interferon, alpha-inducible protein (NM_022873), Hs766T",−4.46 fold
same,Fold-change after 5Aza-dC treatment,"[2]; p53-induced protein (PIGII), Hs766T",1.04 fold
same,Fold-change after 5Aza-dC treatment,"[2]; reprimo, Hs766T",6.65 fold
same,Fold-change after 5Aza-dC treatment,"[2]; stratifin (14-3-3 sigma), Hs766T",−1.64 fold
same,Fold-change after 5Aza-dC treatment,"[2]; stromal antigen 3 (STAG5), Hs766T",1.01 fold
same,Fold-change after 5Aza-dC treatment,"[2]; testin, Hs766T",1.6 fold
